In data set [1] the test system is Botryotinia fuckeliana (Botrytis cinerea). As to the kind of experiment: Botryotinia fuckeliana (Botrytis cinerea) / liquid culture (gray mould). It is filed as cell-based. Particulars: growth inhibition photometrically 3-4 days after application, vs untreated control. Here is the method: Botryotinia fuckeliana (Botrytis cinerea)/Liquid Culture (Gray Mould)
Conidia of the fungus from cryogenic storage are directly mixed into nutrient broth (Vogels broth). After placing a (DMSO) solution of test compound into a microtiter plate (96-well format), the nutrient broth containing the fungal spores is added. The test plates are incubated at 24° C. and the inhibition of growth is determined photometrically 3-4 days after application.

Data set [2] has as its system Glomerella lagenarium (Colletotrichum lagenarium). Kind of data set: Glomerella lagenarium (Colletotrichum lagenarium) / liquid culture (anthracnose). Particulars: Colletotrichum orbiculare, growth inhibition photometrically 3-4 days after application, vs untreated control. The class given is cell-based. Here is the method:
Conidia of the fungus from cryogenic storage are directly mixed into nutrient broth (PDB potato dextrose broth). After placing a (DMSO) solution of test compound into a microtiter plate (96-well format), the nutrient broth containing the fungal spores is added. The test plates are incubated at 24° C. and the inhibition of growth is measured photometrically 3-4 days after application.

For data set [3], the system named is Monographella nivalis (Microdochium nivale). As to the kind of experiment: Monographella nivalis (Microdochium nivale) / liquid culture (foot rot cereals). Conditions: growth inhibition photometrically 4-5 days after application, vs untreated control. It is filed as cell-based. Here is the method:
Monographella nivalis (Microdochium nivale)/Liquid Culture (Foot Rot Cereals)
Conidia of the fungus from cryogenic storage are directly mixed into nutrient broth (PDB potato dextrose broth). After placing a (DMSO) solution of test compound into a microtiter plate (96-well format), the nutrient broth containing the fungal spores is added. The test plates are incubated at 24° C. and the inhibition of growth is determined photometrically 4-5 days after application.

The subject of data set [4] is Magnaporthe grisea (Pyricularia oryzae). Kind of data set: microbe, parasite or virus in culture. The class given is cell-based. Particulars: read-out: control of Magnaporthe grisea.
Data set [5] has the same test system. As to the kind of experiment: whole plant or invertebrate. It is filed as in vivo, Magnaporthe grisea on rice leaf segments cv. Ballila. Conditions: foliar, read-out: control of Magnaporthe grisea.
In the next data set the test system is Sclerotinia sclerotiorum. Kind of data set: Sclerotinia sclerotiorum / liquid culture (cottony rot). It is filed as cell-based. Conditions: growth inhibition photometrically 3-4 days after application, vs untreated control. Here is the method:
Sclerotinia sclerotiorum/Liquid Culture (Cottony Rot)
Mycelia fragments of a newly grown liquid culture of the fungus are directly mixed into nutrient broth (Vogels broth). After placing a (DMSO) solution of test compound into a microtiter plate (96-well format) the nutrient broth containing the fungal material is added. The test plates are incubated at 24° C. and the inhibition of growth is determined photometrically 3-4 days after application.

The test system of data set [6] is Fusarium culmorum. Kind of data set: microbe, parasite or virus in culture. It is filed as cell-based. Conditions: read-out: control of Fusarium culmorum.
Data set [7] concerns Fusarium culmorum. Kind of data set: whole plant or invertebrate. Particulars: in Triticum aestivum, read-out: control of Fusarium culmorum. The class given is in vivo, Fusarium culmorum on wheat spikelets cv. Monsun.

This is an account of results in patent US20220030867A1 (priority 2018, published 2022).

The structures appear in SMILES notation.

Take `Cc1nc2c(F)cccc2cc1NC(=O)[C@](C)(Cc1cccc(F)c1)CC(C)C` [Compound F-29, (2S)-N-(8-fluoro-2-methyl-3-quinolyl)-2-[(3-fluorophenyl)methyl]-2,4-dimethyl-pentanamide]: the inhibition of growth at 200 ppm in data set [1], in [2], in data set [3] and in data set [4] was not below 80% throughout. Further, the pest or weed control at 200 ppm in data set [5] is not below 80%. This compound had an inhibition of growth at 20 ppm with Sclerotinia sclerotiorum not below 80%.
Consider `C=C(Cl)C[C@H](Cc1ccccc1)C(=O)Nc1cc2cccc(F)c2nc1C` [Compound F-26, (2S)-2-benzyl-4-chloro-N-(8-fluoro-2-methyl-3-quinolyl)pent-4-enamide], for which the inhibition of growth at 200 ppm (in [1]; with Fusarium culmorum [6]; in data set [2]; in data set [4]) was not below 80% each time. In addition, the pest or weed control at 200 ppm (in the data set with Fusarium culmorum [7]; in [5]) was not below 80% throughout. In the data set on Sclerotinia sclerotiorum, this compound returned an inhibition of growth at 20 ppm not below 80%.
As for `CC(C)(C)CC(Cc1ccccc1)C(=O)Nc1cnc2c(F)cccc2c1` (stereo not shown) [Compound E-98, 2-benzyl-N-(8-fluoro-3-quinolyl)-4,4-dimethyl-pentanamide], the inhibition of growth at 200 ppm (in [1]; in the data set on Fusarium culmorum [6]; in [2]; in data set [4]) was not below 80% in each case. In addition, in data set [5], the pest or weed control at 200 ppm was not below 80%.
On to `Cc1nc2c(F)cccc2cc1NC(=O)[C@@H](Cc1ccccc1)CC(C)(C)C` [Compound F-34, (2R)-2-benzyl-N-(8-fluoro-2-methyl-3-quinolyl)-4,4-dimethyl-pentanamide], for which the inhibition of growth at 200 ppm (in data set [1]; in the data set on Fusarium culmorum [6]; in data set [2]; in data set [3]; in [4]) was not below 80% in each case. Moreover, the pest or weed control at 200 ppm (with Fusarium culmorum [7]; in [5]) was not below 80% throughout. In the data set with Sclerotinia sclerotiorum, this compound returned an inhibition of growth at 20 ppm not below 80%.
For the compound `Cc1nc2c(F)cccc2cc1NC(=O)[C@H](Cc1ccccc1)CC1(C)CC1` [Compound F-37, (2S)-2-benzyl-N-(8-fluoro-2-methyl-3-quinolyl)-3-(1-methylcyclopropyl)propanamide], the inhibition of growth at 200 ppm (in data set [1]; in the data set on Fusarium culmorum [6]; in [2]; in [4]) was not below 80% throughout. For the same compound, the pest or weed control at 200 ppm in the data set on Fusarium culmorum [7] is not below 80%.
Turning to `Cc1nc2c(F)cccc2cc1NC(=O)[C@](C)(Cc1cccc(F)c1)CC(F)(F)F` [Compound F-32, (2R)-4,4,4-trifluoro-N-(8-fluoro-2-methyl-3-quinolyl)-2-[(3-fluorophenyl)methyl]-2-methyl-butanamide], the inhibition of growth at 200 ppm (in [1]; with Fusarium culmorum [6]; in [2]; in data set [4]) was not below 80% throughout. In addition, the pest or weed control at 200 ppm (with Fusarium culmorum [7]; in [5]) was not below 80% in each case. This compound displayed an inhibition of growth at 20 ppm in the data set on Sclerotinia sclerotiorum not below 80%.
On to `Cc1c(NC(=O)[C@H](Cc2ccccc2)CC(C)(C)C)cnc2c(F)cccc12` [Compound F-35, (2S)-2-benzyl-N-(8-fluoro-4-methyl-3-quinolyl)-4,4-dimethyl-pentanamide], for which the inhibition of growth at 200 ppm (in [1]; in the data set on Fusarium culmorum [6]; in data set [2]; in [3]; in data set [4]) was not below 80% in each case. Also, the pest or weed control at 200 ppm (in the data set on Fusarium culmorum [7]; in data set [5]) was not below 80% in each case.
For `Cc1c(NC(=O)[C@H](Cc2ccccc2)CC2(C)CC2)cnc2c(F)cccc12` [Compound F-39, (2S)-2-benzyl-N-(8-fluoro-4-methyl-3-quinolyl)-3-(1-methylcyclopropyl)propanamide], the inhibition of growth at 200 ppm (in data set [1]; with Fusarium culmorum [6]; in data set [2]; in data set [4]) was not below 80% in each case.
Turning to `Cc1nc2c(F)cccc2cc1NC(=O)[C@H](Cc1ccccc1)CC(C)(C)C` [Compound F-33, (2S)-2-benzyl-N-(8-fluoro-2-methyl-3-quinolyl)-4,4-dimethyl-pentanamide], the inhibition of growth at 200 ppm (in data set [1]; in the data set on Fusarium culmorum [6]; in [2]; in data set [4]) was not below 80% in each case.
Regarding `Cc1c(NC(=O)C(C)(Cc2ccccc2)CC2(C)CC2)cnc2c(F)cccc12` (stereo not shown) [Compound E-100, 2-benzyl-N-(8-fluoro-4-methyl-3-quinolyl)-2-methyl-3-(1-methylcyclopropyl)propanamide], the melting point (in general, the temperature, or range, at which the solid turns liquid) was in the range of 163 to 164 °C. The inhibition of growth at 200 ppm in data set [1] was not below 80%. In addition, the inhibition of growth at 200 ppm in the data set with Fusarium culmorum [6] was not below 80%. Also, the pest or weed control at 200 ppm in the data set with Fusarium culmorum [7] is not below 80%. In addition, the inhibition of growth at 200 ppm in data set [2] was not below 80%. The inhibition of growth at 200 ppm in data set [4] was not below 80%. Besides, in [5], the pest or weed control at 200 ppm is not below 80%. In the data set on Sclerotinia sclerotiorum, this compound had an inhibition of growth at 20 ppm not below 80%.
In the case of `Cc1nc2c(F)cccc2cc1NC(=O)C(C)(Cc1ccccc1)CC1(C)CC1` (stereo not shown) [Compound E-99, 2-benzyl-N-(8-fluoro-2-methyl-3-quinolyl)-2-methyl-3-(1-methylcyclopropyl)propanamide], the melting point was 151 to 152 °C. For the same compound, the inhibition of growth at 200 ppm in [1] is not below 80%. Further, the inhibition of growth at 200 ppm in the data set on Fusarium culmorum [6] is not below 80%. Moreover, the pest or weed control at 200 ppm in the data set on Fusarium culmorum [7] is not below 80%. In data set [2], this compound gave an inhibition of growth at 200 ppm not below 80%. For the same compound, in data set [4], the inhibition of growth at 200 ppm is not below 80%. The pest or weed control at 200 ppm in [5] was not below 80%.
In the case of `Cc1nc2c(F)cccc2cc1NC(=O)C(Cc1ccccc1)CC(C)(C)C` (stereo not shown) [Compound E-97, 2-benzyl-N-(8-fluoro-2-methyl-3-quinolyl)-4,4-dimethyl-pentanamide], the inhibition of growth at 200 ppm (in data set [1]; in the data set on Fusarium culmorum [6]; in data set [2]; in data set [3]; in [4]) was not below 80% throughout. Moreover, the pest or weed control at 200 ppm (with Fusarium culmorum [7]; in data set [5]) was not below 80% throughout.
On to `C=C(Cl)C[C@H](Cc1ccccc1)C(=O)Nc1cnc2c(F)cccc2c1C` [Compound F-28, (2S)-2-benzyl-4-chloro-N-(8-fluoro-4-methyl-3-quinolyl)pent-4-enamide], for which the inhibition of growth at 200 ppm (in [1]; in the data set on Fusarium culmorum [6]; in data set [2]; in [3]; in data set [4]) was not below 80% each time. Further, the inhibition of growth at 20 ppm with Sclerotinia sclerotiorum was not below 80%.
Turning to `Cc1nc2c(F)cccc2cc1NC(=O)[C@@](C)(Cc1cccc(F)c1)CC(C)C` [Compound F-30, (2R)-N-(8-fluoro-2-methyl-3-quinolyl)-2-[(3-fluorophenyl)methyl]-2,4-dimethyl-pentanamide], the inhibition of growth at 200 ppm in data set [1], in data set [2], in data set [3] and in data set [4] was not below 80% each time. In addition, the pest or weed control at 200 ppm in data set [5] was not below 80%. In the data set with Sclerotinia sclerotiorum, this compound registered an inhibition of growth at 20 ppm not below 80%.
Regarding `C=C(Cl)C[C@](C)(Cc1ccccc1)C(=O)Nc1cnc2c(F)cccc2c1C` [Compound F-41, (2S)-2-benzyl-4-chloro-N-(8-fluoro-4-methyl-3-quinolyl)-2-methyl-pent-4-enamide], the inhibition of growth at 200 ppm in data set [1], in data set [2] and in data set [3] was not below 80% each time. The pest or weed control at 200 ppm (in the data set on Fusarium culmorum [7]; in data set [5]) was not below 80% in each case. Moreover, the inhibition of growth at 20 ppm in the data set with Sclerotinia sclerotiorum is not below 80%.
On to `Cc1nc2c(F)cccc2cc1NC(=O)[C@@H](Cc1ccccc1)CC1(C)CC1` [Compound F-38, (2R)-2-benzyl-N-(8-fluoro-2-methyl-3-quinolyl)-3-(1-methylcyclopropyl)propanamide], for which the inhibition of growth at 200 ppm (in data set [1]; in the data set with Fusarium culmorum [6]; in data set [2]; in data set [3]; in data set [4]) was not below 80% in each case. Besides, in the data set on Fusarium culmorum [7], the pest or weed control at 200 ppm is not below 80%. The compound further registered an inhibition of growth at 20 ppm in the data set with Sclerotinia sclerotiorum not below 80%.
